We go through one compound from patent US20140030808A1, “Method for Cellular RNA Expression” (BIONTECH AG, priority 2010, published 2014).

The test system of test [1] is immature dendritic cells (iDCs). It is filed as cell-based, human. The note with it: 0.5 μM to 2 μM.
Test [2] deals with Primary human foreskin fibroblasts (CCD1079SK). The test is described as follows: Induction of type-I interferon transcripts (qRT-PCR) after IVT RNA electroporation. Particulars: 2 μM C13H8N4OS. It is filed as cell-based. The method, then:
Primary human foreskin fibroblasts (CCD1079SK) were electroporated with 1 μg IVT RNA encoding for firefly luciferase and 5 μg IVT RNA encoding for destabilized GFP (luc+GFP). The cells were either left untreated or incubated with 2 μM C13H8N4OS (PKR-inhibitor). Upregulation of interferon-alpha and interferon-betatranscripts in human fibroblasts induced by RNA electroporation was observed (FIGS. 1A and 1C).
(§1) Total cellular RNA was extracted from cells with RNeasy Mini Kit or RNeasy Micro Kit (Qiagen, Hilden, Germany), reverse transcribed with oligo-dT18 using Superscript II (Invitrogen, Carlsbad, Calif., USA), and subjected to real-time quantitative analysis on ABI PRISM 7700 Sequence Detection System instrument and software (Applied Biosystems, Foster City, Calif., USA) using the QuantiTect SYBR Green PCR Kit (Qiagen). Reactions were performed in triplicates with primer amplifying a specific region of the codon optimized
Primary human foreskin fibroblasts (CCD1079SK) were electroporated with 1 μg IVT RNA encoding for firefly luciferase and 5 μg IVT RNA encoding for destabilized GFP (luc+GFP). Electroporations were performed in 2 mm gap cuvettes using optimized parameters. The cells were plated in 6-well-plates at a density of 300000 cells/well and either left untreated or incubated with 2 μM C13H8N4OS (PKR-inhibitor). 24 h later cells were harvested for total RNA extraction and reverse transcription. The induction of type-I interferons was assessed by qRT-PCR using specific primer for IFNα or IFNβ in the presence or absence of PKR-inhibitor as indicated in FIG. 1. Panels A and C show the same samples as B and D with reduced values of the y-axis.
For orientation: Real-time PCR tracks product formation cycle by cycle.

A further test concerns CCD1079SK fibroblasts. Description: Induction of pluripotency marker genes (qRT-PCR). It is filed as cell-based, human. The note with it: 2 μM, 72 h after electroporation. The method, then:
CCD1079SK fibroblasts were either mock electroporated or electroporated with IVT RNA encoding for firefly luciferase (1 μg), eGFP (1.25 μg), SV40 Large T (1.25 μg), HPV16-E6 (1.25 μg), OCT4, SOX2, KLF4, cMYC, NANOG and LIN28 (2.5 μg OCT4 and equimolar amounts for the others). Electroporations were performed in 2 mm gap cuvettes using optimized parameters for CCDs. The cells were plated into 6-well-plates at a density of 250000 cells/well and either left untreated or incubated with 2 μM C13H8N4OS as indicated. […] GDF3 and hTERT induction was increased by the treatment 72 h after electroporation.
as §1
A direct consequence of reprogramming transcription factor expression is the induction of pluripotency marker genes at the transcriptional level. […]

As to `O=C1Nc2ccc3ncsc3c2/C1=C/c1c[nH]cn1` [C13H8N4OS, 6,8-dihydro-8-(1H-imidazol-5-ylmethylene)-7H-pyrrolo[2,3-g]benzothiazol-7-one], the luciferase expression result in test [1] is on record as “loss of luciferase expression”. Moreover, in test [2] (24 h, with or without RNA), the IFN-α transcript induction result is recorded as “induced even in the absence of RNA” and the IFN-β transcript induction entry was “only in the presence of RNA”. Also, the “interferon transcripts (IFNα, IFNβ; qRT-PCR)” value in test [2] (24 h after electroporation with luc+GFP IVT RNA, vs untreated) was “overwhelming increase”. Also, in the test with CCD1079SK fibroblasts, the “GDF3 induction (qRT-PCR)” value was “increased” and the “hTERT induction (qRT-PCR)” value was “increased”.
